Data: patent US20190111107A1, “METHODS FOR MODULATING INTESTINAL MICROBIOTA” (DEFENSIN THERAPEUTICS APS, priority 2016, published 2019)
Entries after “also recorded” stand apart in the source; their conditions may differ. Positions of bridges follow the written chain, without caps; N, C: chain ends. No end group written: not given here.

Tests used:
[1] = test system: Dextran Sodium Sulphate (DSS) induced colitis; assay: Acute 10-day Dextran Sodium Sulphate (DSS) induced colitis model, hBD-2-albumin fusion C-terminal; type: in vivo, mice; settings: active control
Description: To determine and assess the anti-inflammatory effect of “hBD-2-albumin fusion C-terminal” in an acute 10-day Dextran Sodium Sulphate (DSS) induced colitis model in mice.
Treatment regimen: “hBD-2-albumin C-terminal” was administered intravenously via the tail vein or subcutaneously with the use of a sterile 25G needle in a dosing volume of 10 ml/kg body weight. The animals received 1 dose daily for 10 […] days. The active control Prednisolone (Pred) was given orally by gavage at a dose of 1 mg/kg in a dosing volume of 10 ml/kg body weight OD.

mice fed a high fat diet = assay: Prophylactic treatment with defensins in mice fed a high fat diet: weight, lean/fat mass, glucose homeostasis; type: in vivo, C57/BL/6J mice; settings: for weight gain compared with HFD reference group: 10 week study, defensin in HFD, 1,2mg hBD2 per kg mouse per day, HD5 equimolar; for visceral fat (eWAT) compared with HFD group / liver weight: at termination; for liver weight: vs HFD and LFD groups; for glucose-stimulated insulin secretion compared with HFD control mice: during the glucose challenge; for Glucose Tolerance test compared with HFD group: oral glucose tolerance test; for HOMA-IR index compared with HFD group: week 9
Description: Schematic outline of the experimental set up for investigating the effects of mammalian alfa and/or beta defensins on mice metabolism. At week −1, the C57/BL/6J mice were divided in groups and cages, so that there were 3 mice per cage and cages per group. Between week −1 and 0, the mice were clinically examined by magnetic resonance scan to estimate fat distribution. […] At week 4, in addition to analysis of the microbiota, the mice were scanned and blood glucose and insulin levels were measured. […] At week 7, insulin tolerance test (ITT) was conducted. At week 8, oral glucose tolerance test (OGTT) and glucose-stimulated insulin secretion (GSIS) were conducted. At week 9 (termination), several analyses were conducted, in particular the mice were weighed and scanned, and plasma composition and microbiota composition of colon, cecum and small intestine were assessed.
Mice: Mice were housed in trios, 4 cages per group. Feed intake was registered daily just before lights were turned off (6 pm). Individual mice were subjected to experimental procedures in altered order both group and cage wise. Mice were kept at room temperature under a 12-hour light/dark cycle at SPF standard conditions.
Diets: For dosing, the average weight was estimated to be 25 grams per mouse. They eat approximately 3 grams of feed per mouse per day.
Treatment regime (FIG. 1A): Mice were fed either a high fat diet (HFD) or a low fat (LF) control diet. The HFD contains 4 subgroups; 1 hBD2, 1 HD5, 1 hBD2/HD5 and 1 standard HFD without supplementation of defensins. Defensin concentration is 1,2mg hBD2 per kg mouse per day. HD5 is given in equimolar concentration to hBD2.

[2] = Pharmacokinetic study of hBD-2 after single oral gavage; type: in vivo, female NMRI mice
Description: FIG. 28. Pharmacokinetic data following oral administration of 4 mg/kg hBD-2 to female NMRI mice. […] The results are given as group mean +/−SEM.
Pharmacokinetic study to determine oral bioavailability and establish pharmacokinetic profile of hBD-2 following single oral gavage of 4 mg/kg administration to NMRI mice.
Treatment regimen: 21 female NMRI mice were dosed by oral gavage 5 ml/kg using a gavage tube and a 1 ml syringe according to the individual body weight obtained on the day of dosing. Urine was strived sampled at random time points by gently massaging the inguinal area of the abdomen. The first blood sample was taken using a submandibular sampling method. The second blood sample was collected from Isoflurane anaesthetised mice. Intestinal samples were taken after euthanasia. The abdomen of each mouse was opened and three sections (jejunum, duodenum, and colon) of the intestines were sampled.

diet-induced obese mice = assay: Interventional treatment with defensins in diet-induced obese mice: weight, fat percentage, glucose homeostasis; type: in vivo, C57/BL/6J mice; settings: for fat percentage / change in fat percentage compared with HFD control: 4 weeks after dietary intervention; for Glucose Tolerance Test after start of intervention: OGTT repeated biweekly from week 13-0; for Insulin Tolerance Test: insulin sensitivity compared with HFD control group: week 9, p<0.05
Description: FIG. 1B. Schematic outline of the experimental set up for investigating the effects of mammalian alfa and/or beta defensins on mice metabolism. At week −1, the C57/BL/6J mice arrived. At week 0 feces was collected. During run-in between week 0 and week 12 the mice were fed a high fat diet. At week 12 the mice were clinically examined by magnetic resonance scan to estimate fat distribution, feces was collected and oral glucose tolerance test (OGTT) and glucose-stimulated insulin secretion (GSIS) performed. At week 13-0 the mice were divided in groups and cages with 4 mice percage and 3 cages per group. At week 0, 12 and 13-10, the microbiome of the faeces was analysed. At week 13-2, 13-4, 13-6, 13-8 and 13-10 the mice were scanned and blood glucose and insulin levels were measured. At week 13-9, insulin tolerance test (ITT) was conducted. At week 13-10 (termination), several analyses were conducted, in particular the mice were weighed and scanned, and plasma composition and microbiota composition of colon, cecum and small intestine were assessed. In addition, iWAT, eWAT and liver weight were measured.
Mice and diets. The experiment elucidates the effect of hBD-2 and HD5 in the treatment of metabolic syndrome (MetS) in diet-induced obese mice. A run-in period of 13 weeks where mice were fed a very HFD (60% energy from fat) preceded the intervention. Only mice meeting the criteria of a minimum of 12 gram weight gain (approximately 50% of initial bodyweight) during the run-in period were included in the final analyses. […] They were exposed to all experimental tests, but excluded from the analyses.
Treatment regimen (FIG. 1B). Before the intervention all mice were MR scanned and an OGTT was performed. Cages of mice were allocated to experimental groups based on their fat mass. All subsequent measures were paired with data from the same mouse before the intervention.
A LFD (low fat diet) reference group was running in parallel. As controls for the intervention 2 additional groups were included: 1 very HFD and 1 LFD. Experimental mice stayed on the very HFD during the intervention. The mice were on the experimental diet for 10 weeks. They were co-housed throughout the experiment, 4 mice per cage, 3 cages per group. All tests ran over 3 days, 1 cage per group per day.

intestinal microbiota = assay: Longitudinal 16S characterization of intestinal microbiota under prophylactic defensin treatment; type: in vivo, mice
Description: FIG. 21A and 21B. The figures illustrate changes from week 1 (Wk1) to week 10 (Wk10) for the four treatments in Example 1: High fat diet with HD5-HF HD5; high fat diet with hBD2−HD hBD2; High fat diet—no treatment: HF; Low fat diet: LF. Weighted unifrac analysis of microbiota at week 1 (21A) and week 10 (21 B) i.e. relative abundance of bacterial species. […] Abbreviations: Wk 1—week 1; W10—week 10.
FIG. 21C. Illustration of the species of microbiota contributing to the change. […] Allobaculum is a short chain fatty acid producing species. Lactobacillus is a bacteria with anti-inflammatory properties.
Microbial analyses were carried out to study the microbiota of the intestine. Longitudinal 16S characterization was conducted on 4 paired samples from 60 mice, 240 samples in total. Each mouse was sampled prior to diet change, 1 week post diet change, 4 weeks post diet change and at termination, thus ensuring a thorough characterization of the faecal microbiota as a result of defensin treatment.

isolated hepatocytes = settings: Liu et al. (2008); cited from earlier work

Compound: C[C@]12C=CC(=O)C=C1CC[C@@H]1[C@@H]2[C@@H](O)C[C@@]2(C)[C@H]1CC[C@]2(O)C(=O)CO [Prednisolon, Prednisolone]
- DAI ([1]; 1 mg/kg orally by gavage daily, p<0.05): significant inhibition of the DAI on day 9
- histological injury in the proximal part of the colon ([1]; 1 mg/kg orally daily): failed to significantly reduce histological injury in the proximal part of the colon
- histological injury in the distal colon ([1]; 1 mg/kg orally daily, p<0.01): did reduce the injury in the distal colon

Compound: GIGDPVTCLKSGAICHPVFCPRRYKQIGTCGLPGTKCCKKP (disulfide 8-37, 15-30, 20-38 (inferred)) [hBD-2, human beta defensin 2]
- weight gain compared with HFD reference group (mice fed a high fat diet): gained significantly less weight than the HFD reference group
- share of defensin-fed mice with a Body Fat Percent resembling LFD reference mice (mice fed a high fat diet; 60% HFD): 50%
- visceral fat mass of the best protected mice compared with LFD reference mice (mice fed a high fat diet; 60% HFD): same or smaller visceral fat mass than LFD reference mic
- lean mass gained at the end of the study compared with HFD group (mice fed a high fat diet; HFD plus hBD-2 vs HFD): gained the same amount of lean mass
- fat mass at the end of the study compared to the LFD group (mice fed a high fat diet; HFD plus hBD-2 vs LFD, p=0.25): trended towards increased fat mass compared to the LFD group
- visceral fat (eWAT) compared with HFD group (mice fed a high fat diet): significantly less visceral fat (eWAT) than the HFD group
- liver weight (mice fed a high fat diet): no statistical difference between the three groups in terms of liver weight
- Glucose Stimulated Insulin Secretion: insulin concentration compared with LFD group (mice fed a high fat diet; during the GTT, week 7): higher but not significantly different insulin concentration than the LFD group; also recorded: higher but not significantly different insulin concentration from the LFD group
- glucose-stimulated insulin secretion compared with HFD control mice (mice fed a high fat diet): glucose stimulated insulin response during the glucose challenge was improved
- amount of fat mass gained by the HFD group compared to the HFD plus hBD-2 group (mice fed a high fat diet; first analysis, p=0.005): 2 times
- Insulin Tolerance test: compared with LFD reference group (mice fed a high fat diet; mouse, in vivo): no statistical significant difference between the LFD reference group and the HFD plus hBD-2 group
- Insulin Tolerance test: insulin sensitivity compared with HFD group (mice fed a high fat diet; mouse, in vivo): significantly more sensitive to insulin than the HFD group
- Glucose Tolerance test compared with HFD group (mice fed a high fat diet; week 7): slightly prolonged glucose clearance but reached significantly lower glucose levels than the HFD group
- Glucose Tolerance test compared with HFD group (mice fed a high fat diet; week 7, listed as hBD2): Glucose tolerance was markedly improved compared to HFD control mice
- Five Hour Fasting insulin: HFD group compared with HFD plus hBD-2 group (mice fed a high fat diet; p=0.057): borderline significantly higher fasting insulin than the HFD plus hBD-2 group
- Five Hour Fasting insulin: LFD compared with HFD plus hBD-2 group (mice fed a high fat diet; p=0.17): no significant difference between the LFD and HFD plus hBD-2 groups
- amount of fat mass in percent of total body weight gained by the HFD group compared to the HFD plus hBD-2 group (mice fed a high fat diet; re-analysis, p=0.005): two times
- HOMA-IR index compared with HFD group (mice fed a high fat diet): statistically significantly lower
- systemic availability after oral dosing ([2]; 4 mg/kg oral, mice): not systemically available
- time hBD2 remains detectable in the colon content after administration ([2]; oral 4 mg/kg): up to 360 minutes
- fat percentage / change in fat percentage compared with HFD control (diet-induced obese mice): significantly smaller
- Glucose Tolerance Test after start of intervention (diet-induced obese mice): smaller peak in blood glucose as well as a faster clearance of glucose already after 2 weeks
- obese and glucose intolerant mice that significantly improved their glucose tolerance (diet-induced obese mice; following 2 weeks of intervention): 7/8
- visceral fat (eWAT) at termination compared with HFD control (diet-induced obese mice; mouse, in vivo): no significant difference in visceral fat (eWAT) between the HFD fed groups
- weight gain the first 4 weeks post dietary intervention compared with standard HFD group (diet-induced obese mice; p=0.07): tended to gain less weight the first 4 weeks post dietary intervention, although not significantly
- weight gain from week 4 to the end of the study period compared with standard HFD group (diet-induced obese mice; p=0.82): gained similar weight as the standard HFD group
- Insulin Tolerance Test: insulin sensitivity compared with HFD control group (diet-induced obese mice): more insulin sensitive compared to the HFD control group
- share of the group with a smaller fat percentage than before the intervention (diet-induced obese mice; weeks 4 post dietary intervention): ~75%

Compound: human intestinal alpha defensin 5 (ATCYCRTGRCATRESLSGVCEISGRLYRLCCR; listed as Homo sapiens) [HD5]
- weight gain compared with HFD reference group (mice fed a high fat diet): gained less weight than HFD-fed control mice (FIG. 17A), although the effect was not statistically significant
- visceral fat (eWAT) compared with HFD group (mice fed a high fat diet): borderline less visceral fat
- liver weight (mice fed a high fat diet): No statistically significant difference with respect to liver weight
- glucose-stimulated insulin secretion compared with HFD control mice (mice fed a high fat diet): no significant improvement
- Insulin Tolerance test: insulin sensitivity compared with HFD group (mice fed a high fat diet; mouse, in vivo): no significant improvement
- fat % compared with HFD-fed control mice (mice fed a high fat diet; mouse, in vivo): borderline less fat %
- feed efficiency compared with HFD-fed control mice (mice fed a high fat diet; mouse, in vivo): tendency towards lower feed efficiency
- Glucose Tolerance test compared with HFD group (mice fed a high fat diet; week 7): no significant improvement
- HOMA-IR index compared with HFD group (mice fed a high fat diet): no significant improvement
- microflora composition (weighted unifrac analysis) relative to LFD and non-treated HFD groups (intestinal microbiota; after 10 weeks, oral HD5 in HFD): gradually approached the bacterial flora of mice fed a LFD; also recorded: partial normalization of the microflora
- abundance of bacterial genera in the intestinal microbiota compared with non-treated HFD mice (intestinal microbiota; at termination): increased abundance of Allobaculum and Lactobacillus and a decrease in abundance of Clostridium
- fat percentage / change in fat percentage compared with HFD control (diet-induced obese mice): significantly lower fat percentage
- fat percentage of total body weight over time (diet-induced obese mice; 10 weeks intervention): tendency of decreasing fat percentage
- weight gain after dietary intervention compared with HFD control (diet-induced obese mice; 10 weeks on experimental diet): gained significantly less weight than the HFD control
- Glucose Tolerance Test after start of intervention (diet-induced obese mice): improved over time
- visceral fat (eWAT) at termination compared with HFD control (diet-induced obese mice; mouse, in vivo): not significantly different
- weight of the liver at termination compared to the HFD control (diet-induced obese mice; mouse, in vivo): tended to be decreased
- Insulin Tolerance Test: insulin sensitivity compared with HFD control group (diet-induced obese mice): more insulin sensitive than the HFD control

Compound: human neutrophil peptide 1 [HNP-1]
- inhibition of glycogenolysis and gluconeogenesis (isolated hepatocytes): able to inhibit glycogenolysis and gluconeogenesis in isolated hepatocytes

Compound: human neutrophil peptide 2 (CYCRIPACIAGERRYGTCIYQGRLWAFCC; ends and bridges not checked; cysteine pairing not given here; UniProt P59665 66-94, looked up) [HNP-2, α-defensin produced by leucocytes]
- inhibition of glycogenolysis and gluconeogenesis (isolated hepatocytes): able to inhibit glycogenolysis and gluconeogenesis in isolated hepatocytes
